From patent US7728042B2, “Transdermal pharmaceutical composition” (Richter Gedeon Vegyeszeti Gyar RT, priority 2003, dated 2010)

Legend:
[1] = Active agent release, Microette Hanson vertical diffusion cell, hydrophilic membrane soaked with water; details: for Release kinetics of the active agent: liquid crystal transdermal gel, Q=Q0+nt^0.5
[2] = Active agent release, Microette Hanson vertical diffusion cell, lipophilic membrane soaked with isopropyl myristate; details: release from liquid crystal gel, FIGS. 7-14
[3] = oral administration; cited from earlier work

Compound	Release kinetics of the active agent [1]	other results
Cc1ncc([N+](=O)[O-])n1CCO [Metronidazole, 1-(2-hydroxy-1-ethyl)-2-methyl-5-nitro-imidazol]	generally follows the Higuchi-like relationship	–
Cc1ccc(C(=O)C(C)CN2CCCCC2)cc1 (stereo not shown) [Tolperisone, 1-piperidino-2-methyl-3-(p-tolyl)-3-propanon]	generally follows the Higuchi-like relationship	–
CCc1ccc(C(=O)C(C)CN2CCCCC2)cc1 (stereo not shown) [Eperisone, 1-(4-ethyl-phenyl)-2-methyl-3-(1-piperidinyl)-1-propanon]	generally follows the Higuchi-like relationship	–
CNC1(c2ccccc2Cl)CCCCC1=O (stereo not shown) [Ketamine, 2-(2-chloro-phenyl)-2-(methyl-amino)-cyclohexanon]	generally follows the Higuchi-like relationship	Active agent release in 4 hours, Hydrophilic membrane ([1]; liquid crystal gel with low molecular weight sodium-hyaluronate, ondansetron 1.2%, terbinafine 2.0%, metronidazole 0.9%, eperisone 0.8%, tolperisone 1.0%, ketamine 1.0%): 9.73 μg/cm^2; Crossing of the hydrophilic membrane ([1]; release from liquid crystal gel, FIGS. 7-14): cross the hydrophilic membrane quickly and effectively; Crossing of the membrane impregnated with lipophilic fluid [2]: do not cross the membrane impregnated with lipophilic fluid
CCOC(=O)C1=C[C@]2(CC)CCCN3CCc4c(n1c1ccccc41)[C@@H]32 [vinpocetine, (3α,16α)-eburnamenine-14-carboxylic acid ethylester]	–	Bioavailability [3]: 6-8%
CN(C/C=C/C#CC(C)(C)C)Cc1cccc2ccccc12 [Terbinafine, N-(6,6-dimethyl-2-heptene-4-inyl)-N-methyl-(E)-naphtal-1-en-methan-amine]	generally follows the Higuchi-like relationship	–
Cc1nccn1CC1CCc2c(c3ccccc3n2C)C1=O (stereo not shown) [Ondansetron, 1,2,3,9-tetrahydro-9-methyl-3-[(2-methyl-1H-imidazol-1-il)-methyl]-4H-karbazol-4-on]	generally follows the Higuchi-like relationship	–
